From the NIST ThermoML archive (doi:10.1021/acs.jced.7b00201)

Assay: xn = mol fraction of the nth substance listed
Conditions: 100 kPa, Liquid; for mass density: Vibrating tube method; for viscosity: Falling or rolling sphere viscometry

OCC1CC1 [cyclopropylmethanol] + CCCCC1CCCCC1
Conditions	mass density [kg/m3]	viscosity [mPa·s]
318.15 K, x1 = 0.1039	784.47	–
318.15 K, x1 = 0.2031	789.74	–
318.15 K, x1 = 0.3022	796.03	–
318.15 K, x1 = 0.3997	803.27	–
318.15 K, x1 = 0.4993	811.9	–
318.15 K, x1 = 0.5994	822.19	–
318.15 K, x1 = 0.7	834.65	–
318.15 K, x1 = 0.797	849.17	–
318.15 K, x1 = 0.9004	868.5	–
318.15 K, x1 = 1	892.38	–
323.15 K, x1 = 0.1039	780.53	0.837
323.15 K, x1 = 0.2031	785.74	0.861
323.15 K, x1 = 0.3022	791.97	0.894
323.15 K, x1 = 0.3997	799.16	0.941
323.15 K, x1 = 0.4993	807.75	1.01
323.15 K, x1 = 0.5994	818.01	1.094
323.15 K, x1 = 0.7	830.44	1.205
323.15 K, x1 = 0.797	844.94	1.345
323.15 K, x1 = 0.9004	864.26	1.555
323.15 K, x1 = 1	888.13	1.843
328.15 K, x1 = 0.1039	776.57	0.784
328.15 K, x1 = 0.2031	781.71	0.808
328.15 K, x1 = 0.3022	787.87	0.832
328.15 K, x1 = 0.3997	795.01	0.873
328.15 K, x1 = 0.4993	803.56	0.931
328.15 K, x1 = 0.5994	813.78	1.003
328.15 K, x1 = 0.7	826.18	1.098
328.15 K, x1 = 0.797	840.66	1.22
328.15 K, x1 = 0.9004	859.97	1.399
328.15 K, x1 = 1	883.84	1.646
333.15 K, x1 = 0.1039	772.6	0.736
333.15 K, x1 = 0.2031	777.65	0.758
333.15 K, x1 = 0.3022	783.75	0.777
333.15 K, x1 = 0.3997	790.83	0.812
333.15 K, x1 = 0.4993	799.33	0.862
333.15 K, x1 = 0.5994	809.5	0.923
333.15 K, x1 = 0.7	821.87	1.005
333.15 K, x1 = 0.797	836.33	1.109
333.15 K, x1 = 0.9004	855.62	1.264
333.15 K, x1 = 1	879.49	1.476
338.15 K, x1 = 0.1039	768.6	0.697
338.15 K, x1 = 0.2031	773.56	0.718
338.15 K, x1 = 0.3022	779.59	0.733
338.15 K, x1 = 0.3997	786.61	0.767
338.15 K, x1 = 0.4993	795.05	0.801
338.15 K, x1 = 0.5994	805.18	0.853
338.15 K, x1 = 0.7	817.51	0.923
338.15 K, x1 = 0.797	831.94	1.012
338.15 K, x1 = 0.9004	851.21	1.146
338.15 K, x1 = 1	875.07	1.328
343.15 K, x1 = 0.1039	764.58	0.656
343.15 K, x1 = 0.2031	769.4	0.668
343.15 K, x1 = 0.3022	775.39	0.684
343.15 K, x1 = 0.3997	782.35	0.709
343.15 K, x1 = 0.4993	790.73	0.746
343.15 K, x1 = 0.5994	800.8	0.79
343.15 K, x1 = 0.7	813.09	0.85
343.15 K, x1 = 0.797	827.49	0.928
343.15 K, x1 = 0.9004	846.74	1.043
343.15 K, x1 = 1	870.62	1.201
